Test results from patent US20130131321A1, “LIGANDS FOR ANTIBODY AND Fc-FUSION PROTEIN PURIFICATION BY AFFINITY CHROMATOGRAPHY” (GRAFFINITY PHARMACEUTICALS GMBH, priority 2010, published 2013).

Assays:
[1] = test system: Bevacizumab Fc fragment; assay: SPR screening of chemical microarrays, Bevacizumab Fc fragment; type: binding, humanized; conditions: chemical microarray, immobilized ligand
Description: (§1) Graffinity has developed high density chemical microarrays comprising thousands of small molecules immobilized onto gold chips. The arrays are constructed using maleimide-thiol coupling chemistry in combination with high density pintool spotting. For the construction, glass plates are microstructured by photolithographical methods in order to define up to 9,216 sensor fields per array. A subsequently applied gold coating provides the basis for the SPR effect and enables the formation of a binary, mixed self assembled monolayer (SAM) of two different thiols. […]
(§2) Surface plasmons are collective oscillations of electrons at a metal surface which can be resonantly excited by polarized light of appropriate wavelength and incidence angle. […] Processes which alter the local refractive index in close proximity to the metal surface (such as antibody binding to the immobilized ligands) can therefore be monitored sensitively. […] While scanning over a range of wavelengths covering the SPR resonance conditions, reflection images are recorded stepwise. […]
(§3) The experimental results of the microarray screening campaigns were analyzed by manual hit selection using in-house developed software routines as well as by an in-depth data analysis by commercially available data mining tools. […]

[2] = test system: Palivizumab; assay: SPR screening of chemical microarrays, Palivizumab; type: binding, humanized; conditions: chemical microarray, immobilized ligand
Description: as §1, §2, §3

[3] = test system: Palivizumab; assay: Microtiter plate chromatography of resins, Palivizumab (bound, yield); type: binding, humanized
[4] = test system: human poly-IgG (h-poly-IgG); assay: Microtiter plate chromatography of resins, human poly-IgG (bound, yield); type: binding
[5] = test system: rabbit poly-IgGs; assay: Microtiter plate chromatography of resins, rabbit poly-IgG; type: binding
Description: (§4) Resins were assessed in packed mode by microtiter plate chromatography. For each column, approximately 30 μl of resin were transferred to a 384-well filter plate and sealed with appropriate top frits.
(§5) Columns were equilibrated with 6.7 column volumes (cv) of phosphate buffered saline (0.15 M NaCl, 20 mM sodium phosphate, pH 7.3; PBS) prior to injection. Either 3.3 cv of whole IgGs dissolved at 0.75 mg ml^−1, Fab or Fc fragments dissolved at 0.25 mg ml^−1 (all three in PBS) or host cell proteins (HCP) were injected onto columns. Antibody fragments of Bevacizumab (Fab and Fc) were prepared by cleavage of whole IgG with papain protease (3) according to the protocol of the manufacturer. […] Volumes transferred were spun through columns at 50 g for 1-2 min. During injection of samples, acceleration was reduced to 10 g and centrifugation time increased to 5-10 min. Effluent fractions were collected in 384-well plates and concentrations of protein analyzed by Bradford assay. Protein masses mi, mft and me (see below) were calculated as the product of fraction volume and measured protein concentration.
(§6) The fraction of ‘bound’ protein was calculated as the difference between the total mass of protein injected mi and the mass of protein detected in the flowthrough mft, divided by the total mass of protein injected.
The ‘yield’ of protein was calculated as the mass of protein eluted me, divided by the mass of protein injected mi.
(§7) the fraction of ‘bound’ protein and the ‘yield’ of protein were calculated for each resin based on data for whole IgG-antibodies. In the case of Bevacizumab fragments and host cell proteins, only the fraction of ‘bound’ protein is given. Selectivity of resins was calculated from data for Bevacizumab Whole IgG and host cell proteins. Due to limited experimental precision, selectivity was truncated beyond values of 10.

[6] = test system: Bevacizumab Fc fragment; assay: Microtiter plate chromatography of resins, Bevacizumab Fc fragment (bound); type: binding, humanized
Description: as §4, §5, §6, §7

[7] = test system: host cell proteins (HCP); assay: Microtiter plate chromatography of resins, host cell proteins (bound); type: binding, CHO; conditions: host cell proteins
[8] = molecular target: T1, Bevacizumab (Homo sapiens, UniProt P01857); assay: Langmuir isotherms by batch adsorption; type: binding, humanized; conditions: Bevacizumab in PBS pH 7.3, 25° C., at least 3 h
T1 construct: fused on or other part: humanised anti-VEGF-A VH domain N-terminal of the gamma-1 constant region (engineered, no UniProt entry)
Description: Experiments were performed with Bevacizumab as antibody. Parameters of Langmuir isotherms for purified antibody were determined by batch adsorption experiments in 96-well microtiter plates. In each well, 10 μl of sorbent slurry (50% v/v) were mixed with 100 μl of protein solution. Initial concentrations varied from 0.05-5 mg ml^−1 in phosphate-buffered saline (0.15 M NaCl, 20 mM phosphate buffer, pH 7.3; PBS). Reactions were agitated vigorously at 25° C. for at least 3 h. Afterwards, antibody concentration in the supernatents were measured by Bradford assay.
Parameters of Langmuir isotherms, i.e. dissociation constants Kd and maximum capacities qm, were determined from the measured concentrations in supernatants. Parameters were estimated by numerical fitting of the model equation derived by Chase (4).

[9] = Alkaline stability in sodium hydroxide, LC-MS; type: physicochemical; conditions: 25° C., 8 days
Description: It was either treated with 0.1 M or 0.5 M sodium hydroxide at 25° C. Hydrolysis was monitored by LC-MS analysis.

## COc1ccc(NC(=O)c2cc(-c3ccco3)n(C)n2)cc1C(=O)NCCCN [Ligand L1, 5-[5-(2-Furyl)-1-methylpyrazol-3-yl]carboxamido-2-methoxybenzoic acid N-(3-aminopropyl)amide]
[1]
  SPR binding to Bevacizumab Fc fragment: distinct binding
[2]
  SPR binding to full length Palivizumab: clearly bound
[3]
  Palivizumab Bound (%): 100%
  Palivizumab Yield (%): 92%
[4]
  h-poly-IgG Bound (%): 100%
  h-poly-IgG Yield (%): 90%
[5]
  r-poly-IgG Bound (%): 100%
  r-poly-IgG Yield (%): 100%
[5]; microtiter plate chromatography, PBS
  binding of rabbit poly-IgGs: efficient binding
[6]; Bevacizumab Fc fragment
  Bevacizumab Fc Bound (%): 100%
[6]; Fc 0.25 mg ml^-1 in PBS
  binding of Bevacizumab Fc-fragment: bound the Fc-fragment
[7]
  HCP Bound (%): 30%
[8]
  qm (maximum capacity, Langmuir isotherm): 36 mg per ml resin
[9]; 0.1 M NaOH
  degradation (alkaline stability): no degradation
[9]; 0.5 M sodium hydroxide solution, 0.5 M NaOH
  half-life: 12 days
